Experimental data taken from patent US4780476A, “Azoniaspironortropanol esters as asthma therapeutics and broncholytics” (Madaus GmbH & Co., priority 1985, dated 1988).
≈ marks a conversion by molar mass, not a printed value. Read-outs that look alike come from different tables or passages of the source.

Key:
[1] = test system: awake guinea pig (cholinergically-induced bronchial cramps); test: inhalative provocation with acetyl-β-methylcholine chloride aerosol on awake guinea pigs (broncholytic/protective action); format: in vivo; details: for EC50: Cavia porcellus, read-out: EC50, average effective concentration w of acetyl-β-methylcholine chloride (provocation substance) after pre-treatment; for probit analysis reaction % observed: animals reacting with dyspnoea; for probit analysis reaction % calculated: probit regression
Method: animal strain: Pirbright white test substance: trospium chloride (MP 194) (M.W. 428) dosage: 3×10^-7 mole ml^-1 kg^-1 mode of administration: intraperitoneally test substance: dehydrotrospium chloride (WG 71) (M.W. 426) […]
reference substance: atropine hydrochloride (Serva; M.W. 325.8) […]
reference substance: isoproterenol (Fluka; M.W. 247.72) dosage: […]
further substances: acetyl-β-methylcholine chloride (Sigma; M.W. 195.7) mode of administration: 0.5 ml. min^-1 by inhalation.
The guinea pigs intended for an experiment are, after an acclimatization time of at least 8 days, subjected twice to an aerosol of 0.1% acetyl-β-methylcholine chloride solution since, as is known from experience, during the first two inhalative provocations, the animals react with more distinct respiratory disturbances than in the case of the subsequent provocations (adaptation). If, in the case of the two inhalation phases, a nonsensitivity (absence of respiratory disturbances) is observed towards the exposure, these animals are excluded from the actual experiment.
For the purpose of aerosol provocation, the guinea pigs are placed individually in an inhalation chamber (see Section 3.6 hereinafter) in which 0.5 ml. of solution per minute are atomized as droplet aerosol by means of a special nozzle (Rhema, Hofheim, Germany). […] With the help of a stopwatch, there is recorded the time from the commencement of inhalation to the appearance of the asphyctic state; the animals are immediately removed from the inhalation chamber and, as a rule, recover in a very short period of time (recovery of consciousness and normalization of breathing). If, within 180 seconds, no dysponea occurs, the inhalation is discontinued.
One aerosol concentration is tested per test day; the time between the individual aerosol provocations is at least 1 week.
The inhalation chamber is a Plexiglass container specially made for this purpose, the lid of which can be closed in an air-tight manner by means of rubber sealing and grip closure means. The internal measurements of the chamber are 285×190×180 mm., which corresponds to a volume of about 9.75 liters. The special nozzle (Rhema, Hofheim, Germany, order No. 504104) is fixed to a recess on the lid and ensures a uniform supply of the available chamber space with the aerosol. The provocation solution is supplied to the nozzle via an infusion pump (Braun, Melsungen, Germany) (0.5 ml./minute) and there atomized with a superpressure of 180 kPa from an attached pressure gas bottle (artificial air, KW-free). For reasons of safety, the aerosol provocation is carried out under a ventilator.
The EC50, as well as the related confidence interval (p>95%), are determined from the probit regression lines of the percentage values (v. supra) provided with weight coefficients after line adaptation by the "maximum likelihood" method (10 iterations). Furthermore, there is examined the adaptation of the lines to the observed data by means of the chiquadrat test. For the evaluation, a calculation programme is commercially available (Olivetti).

[2] = biological target: T1, isolated tracheal spirals of the guinea pig (Cavia porcellus, UniProt H0W1Z3); test: anticholinergic effectiveness on isolated tracheal spirals (antagonism against acetyl-β-methylcholine chloride); details: for antagonism against acetyl-β-methylcholine chloride / anticholinergic effectiveness (in words): isolated guinea pig tracheal spirals
T1 construct: the whole of the trachea is roughly freed beginning from the larynx up to the tracheal bifurcation, removed and transferred; from tissue; host or cells: isolated trachea (spiral strips) of male Pirbright white guinea pigs
T1 sequence (H0W1Z3 1-590): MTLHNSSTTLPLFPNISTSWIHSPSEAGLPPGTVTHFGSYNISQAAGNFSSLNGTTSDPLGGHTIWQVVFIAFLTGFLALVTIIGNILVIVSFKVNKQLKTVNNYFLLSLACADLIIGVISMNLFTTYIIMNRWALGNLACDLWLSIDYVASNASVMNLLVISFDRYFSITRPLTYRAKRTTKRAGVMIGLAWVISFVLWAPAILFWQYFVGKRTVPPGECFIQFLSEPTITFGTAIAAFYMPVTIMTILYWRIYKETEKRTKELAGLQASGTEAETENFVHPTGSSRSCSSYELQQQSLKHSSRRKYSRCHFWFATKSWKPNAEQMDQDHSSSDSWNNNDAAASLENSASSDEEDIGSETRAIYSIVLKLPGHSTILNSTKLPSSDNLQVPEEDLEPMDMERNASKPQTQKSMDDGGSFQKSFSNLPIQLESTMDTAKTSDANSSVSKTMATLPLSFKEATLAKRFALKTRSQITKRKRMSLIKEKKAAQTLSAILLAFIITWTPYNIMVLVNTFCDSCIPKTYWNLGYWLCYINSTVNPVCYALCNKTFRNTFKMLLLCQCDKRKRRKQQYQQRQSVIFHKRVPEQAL
Excerpt: (§1) A model for this is the measurement of the anticholinergic effectiveness on isolated tracheal spirals of the guinea pig.
(§2) The test substance used was 3α-benziloyloxynortropane-8-spiro-1'-pyrrolidinium chloride (trospium chloride; MP 194), ipratropium bromide being used as comparison substance.
(§3) There is to be determined the anticholinergic effectiveness of MP 194 in comparison with the reference substance ipratropium bromide on the isolated tracheal spirals of the guinea pig.
(§4) 3.1.1. animal species: guinea pig
(§5) 3.1.2. animal strain: Pirbright white
(§6) 3.3.1. test substance (test antagonist) trospium chloride (MP 194) (M.W. 428)
(§7) 3.3.2. reference substance (reference antagonist) ipratropium bromide (Atrovent) (M.W. 412.4)
(§8) 3.3.3.1. acetyl-β-methylcholine chloride (Sigma) (M.W. 195.7)
(§9) The guinea pig is stunned by a blow on the neck. Subsequently, the whole of the trachea is roughly freed beginning from the larynx up to the tracheal bifurcation, removed and transferred to tempered (37° C.) and carbogenized tyrode solution. After surrounding connective tissue has been removed as far as possible, the preparation is cut up spirally by means of fine scissors at an angle of about 45° and separated into two equal sized sections. After weighing, both preparations are provided proximally and distally with a silk thread. One thread serves for fixing the preparation by means of a loop to the bottom of the bath and the other is connected via a hook with the transducer above the bath vessel.
(§10) Subsequently, the preparations, corresponding to the calibration, are prestressed with about 80 mN and equilibrated from 50-100 minutes. During the equilibration phase, the nutrient solution in the bath vessels is renewed in 15 minute intervals. As soon as the resting muscle tonus of the preparation has stabilized, there takes place the cumulative addition of the agonist, whereby the addition of the next highest concentration first takes place when no further increase of contraction is recognisable (plateau). When the maximum contraction height of the preparation is achieved, the cumulative agonist addition is ended and the preparation is rinsed. After a further equilibration phase (v. supra), the cumulative addition of the agonist is repeated but this time in the presence of the test or reference antagonist.
(§11) 3.6.1. The perfusion part consists of an L-shaped organ bath in the hollow space of which (longer limb) runs a double glass spiral through which the nutrient solution is passed into the actual bath vessel (28 ml. content; shorter limb). This bath vessel is divided into two chambers which are, however, connected together by two transverse connections. […] The inlet chambers as well as the feeding glass spirals are tempered from the outside to 37° C. by a separate liquid circulation. This tempering takes place with the help of a "Colora" ultra-thermostat type K (Colora Messtechnik GmbH, Dusseldorf, Germany) which serves as thermostat and pump. In order, in case of need, always to have available ready-for-use nutrient solution, above the organ bath is provided a double-walled storage container in which the nutrient solution is also tempered and carbogenised. This is connected via a glass stopcock and a polypropylene tube with double glass spiral in the interior of the organ bath.
(§12) 3.6.2. The measurement and recording part includes a transducer (Statham-Universal-Zelle UC-2; Hugo Sachs Elektronic KG, Hugstetten, Germany). By means of a hanging-in weight, a force of 40 mN is produced on the transducer which passes as electrical signal via a connecting cable to a bridge amplifier. The amplification is smoothly so regulated that the force provided corresponds to a constant value on the scale or an analogous value on the millimeter paper of the recorder (dependent upon the amplification; see below). After fixing the organ, the preparation is prestressed to the doubled mark, corresponding to 80 mN. […]

[3] = test system: T2, isolated tracheal spirals of the guinea pig (Cavia porcellus); test: as above; details: ratio of maximum agonist effect in presence (EAmB) and absence (EAm) of antagonist
T2 construct: the whole of the trachea is roughly freed beginning from the larynx up to the tracheal bifurcation, removed and transferred; from tissue; host or cells: isolated trachea (spiral strips) of male Pirbright white guinea pigs
T2 sequence (H0W1Z3 1-590): as above
Excerpt: as §1, §2, §3, §4, §5, §6, §7, §8, §9, §10, §11, §12

[4] = acetyl-β-methylcholine chloride w=0.001000, 10 tested (isoproterenol 9), pre-treatment 3×10^-7 mol ml^-1 kg^-1 i.p.
[5] = acetyl-β-methylcholine chloride w=0.001000, pre-treatment 3×10^-7 mol ml^-1 kg^-1 i.p.
[6] = acetyl-β-methylcholine chloride w=0.001780, pre-treatment 3×10^-7 mol ml^-1 kg^-1 i.p.
[7] = acetyl-β-methylcholine chloride w=0.001780, trospium chloride 10 tested, dehydrotrospium chloride 9, atropine 9, isoproterenol 8, pre-treatment 3×10^-7 mol ml^-1 kg^-1 i.p.
[8] = acetyl-β-methylcholine chloride w=0.003160, 10 tested (isoproterenol 9), pre-treatment 3×10^-7 mol ml^-1 kg^-1 i.p.
[9] = acetyl-β-methylcholine chloride w=0.003160, pre-treatment 3×10^-7 mol ml^-1 kg^-1 i.p.
[10] = acetyl-β-methylcholine chloride w=0.005620, 10 tested (isoproterenol 9), pre-treatment 3×10^-7 mol ml^-1 kg^-1 i.p.
[11] = acetyl-β-methylcholine chloride w=0.005620, pre-treatment 3×10^-7 mol ml^-1 kg^-1 i.p.

| Compound | number of animals reacting [1, 4] | probit analysis reaction % observed [1, 5] [%] | probit analysis reaction % calculated [1, 5] [%] | probit analysis reaction % observed [1, 6] [%] | probit analysis reaction % calculated [1, 6] [%] | number of animals reacting [1, 7] | number of animals reacting [1, 8] | probit analysis reaction % observed [1, 9] [%] | probit analysis reaction % calculated [1, 9] [%] | number of animals reacting [1, 10] | probit analysis reaction % observed [1, 11] [%] | probit analysis reaction % calculated [1, 11] [%] | other results |
| --- | --- | --- | --- | --- | --- | --- | --- | --- | --- | --- | --- | --- | --- |
| O=C(OC1CC2CCC(C1)[N+]21CC=CC1)C(O)(c1ccccc1)c1ccccc1 (stereo not drawn) [dehydrotrospium chloride, 3α-benziloyloxynortropane-8-spiro-1'-(3'-pyrrolinium)chloride] | 3 | 30.00 | 38.74 | 66.67 | 50.60 | 6 | 6 | 60.00 | 62.35 | 7 | 70.00 | 73.08 | broncholytic effectiveness compared with atropine and isoproterenol (in words) ([1]; 15 min after i.p. administration, equimolar dosages): comparable with or superior to the well known parasympatholytics atropine and the β-sympathomimetic isoproterenol; EC50 [1]: 1730 µg/mL; broncholytic effect (in words) ([1]; intraperitoneal, cholinergically-induced bronchial cramps, awake guinea pig): outstanding broncholytic effect |
| CC(C)[N+]1(C)C2CCC1CC(OC(=O)C(CO)c1ccccc1)C2 (stereo not drawn) [ipratropium bromide, reference compound] | – | – | – | – | – | – | – | – | – | – | – | – | Kb ([2]; antagonism against acetyl-β-methylcholine chloride, read-out: pA2 ± s (converted)): 0.49 nM; quality of the antagonism (in words) ([2]; comparison of maximum effects in absence and presence of the antagonist): competitive antagonism; antagonism against acetyl-β-methylcholine chloride / anticholinergic effectiveness (in words) [2]: comparable, dosage-dependent antagonism; antagonism against acetyl-β-methylcholine chloride / anticholinergic effectiveness (in words) ([2]; listed as epratropium bromide): dosage dependent antagonism; EAmB/EAm ± s [3]: 1.10 ± 0.24 |
| CC(C)NCC(O)c1ccc(O)c(O)c1 (stereo not drawn) [isoproterenol, reference compound] | 3 | 33.33 | 36.21 | 62.50 | 57.88 | 5 | 7 | 77.78 | 77.28 | 8 | 88.89 | 90.30 | EC50 ([1]; pre-treatment 3×10^-7 mol ml^-1 kg^-1 i.p., 15 min before inhalation, w of acetyl-β-methylcholine chloride in atomised solution, control animals w=0.000539, higher = more protection): 1450 µg/mL (≈ 6.86 mM) |
